For experiment [1], the target named is GSK3β (Homo sapiens, UniProt P49841). The experiment in a line: GSK3β kinase assay (Caliper LabChip3000, fluoresceinated peptide substrate). In kind it is biochemical. The essentials: (§1)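 Eleven-point compound titrations (10 mM DMSO stocks) incubated with kinase and fluorescent peptide for 20 h at room temperature before EDTA quench. Substrate-to-product conversion measured by microfluidic mobility shift; IC50 from non-linear fitting.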

The target of experiment [2] is GSK3α (Homo sapiens, UniProt P49840). The experiment in a line: biochemical. Put shortly: as §1
Sequence of GSK3α (P49840 whole entry, species assumed): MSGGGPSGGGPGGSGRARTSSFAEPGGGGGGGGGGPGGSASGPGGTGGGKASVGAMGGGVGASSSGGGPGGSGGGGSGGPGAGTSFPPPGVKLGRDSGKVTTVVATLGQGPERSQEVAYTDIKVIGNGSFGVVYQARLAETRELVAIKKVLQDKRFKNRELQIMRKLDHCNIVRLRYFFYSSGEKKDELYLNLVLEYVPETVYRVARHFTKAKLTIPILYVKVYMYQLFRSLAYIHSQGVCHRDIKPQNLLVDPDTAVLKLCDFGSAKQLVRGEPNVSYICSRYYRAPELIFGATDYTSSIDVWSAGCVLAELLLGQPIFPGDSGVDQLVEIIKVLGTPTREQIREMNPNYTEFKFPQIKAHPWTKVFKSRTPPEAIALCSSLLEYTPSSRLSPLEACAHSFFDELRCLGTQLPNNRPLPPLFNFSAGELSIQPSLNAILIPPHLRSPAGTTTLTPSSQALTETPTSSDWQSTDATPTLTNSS
Experiment [3] deals with pTau. Briefly: pTau assay (method not described). It counts as cell-based.
Setting [4] is: first value of the cell, 250 pM enzyme, 20 uM ATP, 20 hours at room temperature, read-out: GSK3β/α (nM): GSK3β IC50.
Where [5] appears, read: second value of the cell, 250 pM enzyme, 20 uM ATP, 20 hours at room temperature, read-out: GSK3β/α (nM): GSK3α IC50.

Like-named read-outs stand apart in the source and are kept apart here. Where only a bound is given, the exact number is not on record here.

Sequence of GSK3β (P49841 whole entry, species assumed): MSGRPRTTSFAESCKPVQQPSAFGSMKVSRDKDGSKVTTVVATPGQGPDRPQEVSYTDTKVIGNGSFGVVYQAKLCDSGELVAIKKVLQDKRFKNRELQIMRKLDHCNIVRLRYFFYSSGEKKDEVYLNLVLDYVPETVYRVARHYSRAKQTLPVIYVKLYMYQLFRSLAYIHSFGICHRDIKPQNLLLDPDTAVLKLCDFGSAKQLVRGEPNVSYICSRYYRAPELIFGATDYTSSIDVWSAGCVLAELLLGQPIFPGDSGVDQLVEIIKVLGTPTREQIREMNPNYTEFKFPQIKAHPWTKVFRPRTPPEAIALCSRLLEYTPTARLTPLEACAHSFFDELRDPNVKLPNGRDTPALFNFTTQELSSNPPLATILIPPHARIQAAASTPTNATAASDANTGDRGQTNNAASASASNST

Take `COc1ccc(-c2ccncc2NC(=O)c2ccnc(NC(=O)C3CC3)c2)c(F)c1` [Example 81, 2-(Cyclopropanecarboxamido)-N-(4-(2-fluoro-4-methoxyphenyl)pyridin-3-yl)isonicotinamide]: the IC50 amounted to 1.3 nM in experiment [1] (setting [4]), 0.58 nM in experiment [2] (setting [5]) and 31 nM in experiment [3] (read-out: pTau).
The corresponding values for `CC(C)C(=O)Nc1cc(C(=O)Nc2cnccc2C(F)c2ccccc2)ccn1` (stereo not drawn) [Example 199, N-(4-(fluoro(phenyl)methyl)pyridin-3-yl)-2-isobutyramidoisonicotinamide] are 10 nM, 12 nM and 720 nM.
The corresponding values for `O=C(Nc1cncs1)c1ccnc(NC(=O)C2CC2)c1` [Example 173, 2-(cyclopropanecarboxamido)-N-(thiazol-5-yl)isonicotinamide] are 18 nM, 14 nM and 2500 nM.
For the compound `O=C(Nc1cncc(-c2ccccc2Cl)c1)c1ccnc(NC(=O)C2CCC(F)(F)C2)c1` (stereo not drawn) [Example 237, N-(5-(2-chlorophenyl)pyridin-3-yl)-2-(3,3-difluorocyclopentanecarboxamido)isonicotinamide], the IC50 was 4.1 nM in experiment [1], 0.78 nM in experiment [2] (setting [5]) and 94 nM in experiment [3] (read-out: pTau).
With `O=C(Nc1cncc(Br)c1)c1ccnc(NC(=O)C2CC2)c1` [Example 15, 2-(Cyclopropanecarboxamido)-N-(5-bromopyridin-3-yl)isonicotinamide], the IC50 stood at 16 nM in experiment [1] (setting [4]), 11 nM in experiment [2] (setting [5]) and 610 nM in experiment [3] (read-out: pTau).
Turning to `CC(C)C(=O)Nc1cc(C(=O)Nc2cnccc2OCC(F)F)ccn1` [Example 204, N-(4-(2,2-Difluoroethoxy)pyridin-3-yl)-2-isobutyramidoisonicotinamide], the IC50 is 1.8 nM in experiment [1], 0.97 nM in experiment [2] (setting [5]) and 41 nM in experiment [3] (read-out: pTau).
As to `C[C@@H]1CN(c2ccncc2NC(=O)c2ccnc(NC(=O)C3CC3)c2)C[C@H](C)O1` [Example 79, 2-(Cyclopropanecarboxamido)-N-(4-((2S,6R)-2,6-dimethylmorpholino)pyridin-3-yl)isonicotinamide], the values for the IC50 in experiment [1], in experiment [2] (setting [5]) and in experiment [3] (read-out: pTau) were 14 nM, 5.5 nM and 190 nM, respectively.
As to `CCOc1ccncc1NC(=O)c1ccnc(NC(=O)C2CCCC2)c1` [Example 226, 2-(Cyclopentanecarboxamido)-N-(4-ethoxypyridin-3-yl)isonicotinamide], the IC50 in experiment [1] amounted to 0.62 nM; in experiment [2] (setting [5]), 0.41 nM; in experiment [3] (read-out: pTau), 31 nM.
For `O=C(Nc1cnccc1-c1ccccc1)c1ccnc(NC(=O)[C@@H]2CC[C@@H](O)C2)c1` (relative stereo) [Example 230, 2-((1,3-Trans)-3-hydroxycyclopentanecarboxamido)-N-(4-phenylpyridin-3-yl)isonicotinamide], the IC50 in experiment [1] came out at 2.5 nM; in experiment [2] it was 0.68 nM; in experiment [3] (read-out: pTau (nM)), 73 nM.
For the compound `O=C(Nc1cncc(-n2cccn2)c1)c1ccnc(NC(=O)C2CC2)c1` [Example 118, N-(5-(1H-pyrazol-1-yl)pyridin-3-yl)-2-(cyclopropanecarboxamido)isonicotinamide], the IC50 in experiment [1] (setting [4]) came out at 1.5 nM; in experiment [2] (setting [5]), 0.74 nM; in experiment [3] (read-out: pTau), 330 nM.
For the compound `C[C@H]1COCCN1c1ccncc1NC(=O)c1ccnc(NC(=O)C2CC2)c1` [Example 54, (S)-2-(cyclopropanecarboxamido)-N-(4-(3-methylmorpholino)pyridin-3-yl)isonicotinamide], the IC50 in experiment [1] came out at 0.06 nM; in experiment [2] (setting [5]) it was 0.07 nM; in experiment [3] (read-out: pTau), 2 nM.
On to `CC(=O)Nc1ccc(NC(=O)c2ccnc(NC(=O)C3CC3)c2)cn1` [Example 4, N-(6-Acetamidopyridin-3-yl)-2-(cyclopropanecarboxamido)isonicotinamide], for which the IC50 worked out at 370 nM in experiment [1] (setting [4]), 180 nM in experiment [2] (setting [5]) and 7200 nM in experiment [3] (read-out: pTau).
The corresponding values for `O=C(O)c1cncc(NC(=O)c2ccnc(NC(=O)C3CC3)c2)c1` [Example 103, 5-(2-(cyclopropanecarboxamido)isonicotinamido)nicotinic Acid] are 197 nM, 121 nM and no less than 10000 nM.
The corresponding values for `Cn1c(-c2ccncc2NC(=O)c2ccnc(NC(=O)C3CC3)c2)cc2ccccc21` [Example 96, 2-(Cyclopropanecarboxamido)-N-(4-(1-methyl-1H-indol-2-yl)pyridin-3-yl)isonicotinamide] are 4.1 nM, 1.7 nM and 66 nM.
With `CC(C)C(=O)Nc1cc(C(=O)Nc2cnccc2OCCC(C)(C)O)ccn1` [Example 190, N-(4-(3-hydroxy-3-methylbutoxy)pyridin-3-yl)-2-isobutyramidoisonicotinamide], the figures for the IC50 in experiment [1], in experiment [2] and in experiment [3] (read-out: pTau (nM)) were 3.3 nM, 1.4 nM and 19 nM, respectively.
The like results for `O=C(Nc1cncc(-c2cc(F)ccc2F)c1)c1ccnc(NC(=O)C2CC2)c1` [Example 142, 2-(cyclopropanecarboxamido)-N-(5-(2,5-difluorophenyl)pyridin-3-yl)isonicotinamide] were, in that order, 1.5 nM, 0.76 nM and 100 nM.
Consider `Cn1ccc(-c2cncc(NC(=O)c3ccnc(NC(=O)C4CC4)c3)c2)c1` [Example 151, 2-(cyclopropanecarboxamido)-N-(5-(1-methyl-1H-pyrrol-3-yl)pyridin-3-yl)isonicotinamide], for which the IC50 in experiment [1] (setting [4]) turned out to be 8.8 nM; in experiment [2] (setting [5]), 3.1 nM; in experiment [3] (read-out: pTau) it was 240 nM.
Turning to `CCOc1ccncc1NC(=O)c1ccnc(NC(=O)C2CCC2)c1` [Example 211, 2-(Cyclobutanecarboxamido)-N-(4-ethoxypyridin-3-yl)isonicotinamide], the figures for the IC50 in experiment [1], in experiment [2] (setting [5]) and in experiment [3] (read-out: pTau) were 2.2 nM, 0.9 nM and 72 nM, respectively.
Regarding `CC1CN(c2ccncc2NC(=O)c2ccnc(NC(=O)C3CC3)c2)CCO1` (racemic) [Example 46, 2-(Cyclopropanecarboxamido)-N-(4-(2-methylmorpholino)pyridin-3-yl)isonicotinamide], the IC50 in experiment [1] was 0.54 nM; in experiment [2], 0.37 nM; in experiment [3] (read-out: pTau (nM)), 57 nM.

The values above are taken from patent US9809573B2, “Substituted pyridine derivatives useful as GSK-3 inhibitors” (priority 2013, dated 2017).
